Laboratory results published in patent US20230405552A1, “Super Absorbent Polymer and Preparation Method Thereof” (LG Chem, Ltd., priority 2021, published 2023).

Assays:
[1] = system: E. coli (ATCC 25922) standard strain; assay: Antibacterial property of polymerizable antibacterial monomer against E. coli (absorbance at 600 nm); type: cell-based, Escherichia coli; details: 18 hours at 35° C.; for Optical density: diluted to 1/5, 600 nm
Protocol: (§1) The monomer was put in a 50 ml conical tube according to the content of Table 1 below, and then 25 ml of a nutrient broth (Becton Dickinson) solution, to which 3000±300 CFU/ml of E. coli (ATCC 25922) standard strain was inoculated, was injected. After culturing for 18 hours in a shaking incubator (Vision Scientific, VS-37SIF) at 35° C., the culture solution was diluted to ⅕ concentration using 1× PBS (Gibco). The absorbance of the diluted solution was measured at a wavelength of 600 nm using a UV-Vis spectrophotometer. At this time, the absorbance measured after culturing the nutrient broth solution to which the bacteria was inoculated without the addition of the monomer was compared to the absorbance of the sample to which the monomer was added, and the degree of growth of the bacteria was examined. The bacterial growth-inhibitory rate was calculated according to the following Equation 1, and the results are shown in Table 1 below. Bacterial growth-inhibitory rate(%)=[(ODReference−ODsample)/ODReference]*100 [Equation 1] in Equation, ODReference represents absorbance of the culture medium of Comparative Experimental Example 1-1 without the antibacterial material, and ODsample represents absorbance of the culture medium with the antibacterial material.

[2] = system: Proteus mirabilis (P. mirabilis, ATCC 29906) standard strain; assay: Antibacterial property of polymerizable antibacterial monomer against Proteus mirabilis (absorbance at 600 nm); type: cell-based; details: 18 hours at 35° C.; for Optical density: diluted to 1/5, 600 nm
Protocol: as §1, with “To examine the antibacterial properties” for “Bacterial growth-inhibitory rate(%)=[(ODReference−ODsample)/ODReference]*100 [Equation 1] in Equation, ODReference represents absorbance”, “monomer 2-(tert-butylamino)ethyl methacrylate included in Examples and the monomer 2-(dimethylamino)ethyl methacrylate against Proteus mirabilis, the bacterial growth-inhibitory rate (%) against Proteus mirabilis (P. mirabilis) was calculated in the same manner as in the antibacterial property evaluation for E. coli, except that a nutrient broth solution, to which 3000±300 CFU/ml of Proteus mirabilis (P. mirabilis, ATCC 29906) standard strain was inoculated instead of E. coli (ATCC 25922), was used. In calculating the bacteriostatic reduction rate using Equation 1, CReference represents CFU of bacteria after culturing with the monomer” for “culture medium”, “2-1” for “1-1”, “antibacterial” for “antibacterial material, and ODsample represents absorbance of the culture medium with the antibacterial”

[3] = 0.03 g monomer in 25 ml nutrient broth
[4] = 0.05 g monomer in 25 ml nutrient broth
[5] = 0.07 g monomer in 25 ml nutrient broth

**Q.** C=C(C)C(=O)OCCN(C)C [2-(dimethylamino)ethyl methacrylate] was tested. Which “Bacterial growth-inhibitory rate (%)” value [1, 3] did it give?
**A.** The value was 0.00%.

**Q.** What about the Optical density [1, 3] of the same compound?
**A.** Its Optical density is 0.196.

**Q.** What about the “Bacterial growth-inhibitory rate (%)” value [1, 4] of the same compound?
**A.** Its value is 3.67%.

**Q.** What about the Optical density [1, 4] of the same compound?
**A.** Its Optical density is 0.189.

**Q.** What about the “Bacterial growth-inhibitory rate (%)” value [1, 5] of the same compound?
**A.** The value was 23.98%.

**Q.** What about the Optical density [1, 5] of the same compound?
**A.** The Optical density was 0.149.

**Q.** And the “Bacterial growth-inhibitory rate (%)” value [2, 3]?
**A.** Its value is 3.37%.

**Q.** And the Optical density [2, 3]?
**A.** The Optical density was 0.172.

**Q.** And the “Bacterial growth-inhibitory rate (%)” value [2, 4]?
**A.** The value was 20.22%.

**Q.** What about the Optical density [2, 4] of the same compound?
**A.** The Optical density was 0.142.

**Q.** And the “Bacterial growth-inhibitory rate (%)” value [2, 5]?
**A.** Its value is 67.98%.

**Q.** What about the Optical density [2, 5] of the same compound?
**A.** Its Optical density is 0.057.

**Q.** For C=C(C)C(=O)OCCNC(C)(C)C [2-(tert-butylamino)ethyl methacrylate], which “Bacterial growth-inhibitory rate (%)” value [1, 3] is on record?
**A.** The value was 5.61%.

**Q.** And the Optical density [1, 3]?
**A.** Its Optical density is 0.185.

**Q.** And the “Bacterial growth-inhibitory rate (%)” value [1, 4]?
**A.** Its value is 64.29%.

**Q.** And the Optical density [1, 4]?
**A.** The Optical density was 0.070.

**Q.** What about the “Bacterial growth-inhibitory rate (%)” value [1, 5] of the same compound?
**A.** Its value is 95.41%.

**Q.** What about the Optical density [1, 5] of the same compound?
**A.** Its Optical density is 0.009.

**Q.** What about the “Bacterial growth-inhibitory rate (%)” value [2, 3] of the same compound?
**A.** Its value is 19.10%.

**Q.** And the Optical density [2, 3]?
**A.** Its Optical density is 0.144.

**Q.** What about the “Bacterial growth-inhibitory rate (%)” value [2, 4] of the same compound?
**A.** Its value is 43.82%.

**Q.** What about the Optical density [2, 4] of the same compound?
**A.** Its Optical density is 0.100.

**Q.** And the “Bacterial growth-inhibitory rate (%)” value [2, 5]?
**A.** The value was 94.94%.

**Q.** What about the Optical density [2, 5] of the same compound?
**A.** Its Optical density is 0.009.
